Data: BindingDB's records for doi:10.7270/Q2RR233C (D3R/Abbott, 2020)
“And” between values parts separate entries of the source, which are not always exact repeats. Identical values can stand only once.

Target: Tyrosine-protein kinase ABL1 (Homo sapiens, UniProt P00519)
Experiment: D3R2026
Source text: D3R2026

Tyrosine-protein kinase ABL1, sequence (P00519 whole entry): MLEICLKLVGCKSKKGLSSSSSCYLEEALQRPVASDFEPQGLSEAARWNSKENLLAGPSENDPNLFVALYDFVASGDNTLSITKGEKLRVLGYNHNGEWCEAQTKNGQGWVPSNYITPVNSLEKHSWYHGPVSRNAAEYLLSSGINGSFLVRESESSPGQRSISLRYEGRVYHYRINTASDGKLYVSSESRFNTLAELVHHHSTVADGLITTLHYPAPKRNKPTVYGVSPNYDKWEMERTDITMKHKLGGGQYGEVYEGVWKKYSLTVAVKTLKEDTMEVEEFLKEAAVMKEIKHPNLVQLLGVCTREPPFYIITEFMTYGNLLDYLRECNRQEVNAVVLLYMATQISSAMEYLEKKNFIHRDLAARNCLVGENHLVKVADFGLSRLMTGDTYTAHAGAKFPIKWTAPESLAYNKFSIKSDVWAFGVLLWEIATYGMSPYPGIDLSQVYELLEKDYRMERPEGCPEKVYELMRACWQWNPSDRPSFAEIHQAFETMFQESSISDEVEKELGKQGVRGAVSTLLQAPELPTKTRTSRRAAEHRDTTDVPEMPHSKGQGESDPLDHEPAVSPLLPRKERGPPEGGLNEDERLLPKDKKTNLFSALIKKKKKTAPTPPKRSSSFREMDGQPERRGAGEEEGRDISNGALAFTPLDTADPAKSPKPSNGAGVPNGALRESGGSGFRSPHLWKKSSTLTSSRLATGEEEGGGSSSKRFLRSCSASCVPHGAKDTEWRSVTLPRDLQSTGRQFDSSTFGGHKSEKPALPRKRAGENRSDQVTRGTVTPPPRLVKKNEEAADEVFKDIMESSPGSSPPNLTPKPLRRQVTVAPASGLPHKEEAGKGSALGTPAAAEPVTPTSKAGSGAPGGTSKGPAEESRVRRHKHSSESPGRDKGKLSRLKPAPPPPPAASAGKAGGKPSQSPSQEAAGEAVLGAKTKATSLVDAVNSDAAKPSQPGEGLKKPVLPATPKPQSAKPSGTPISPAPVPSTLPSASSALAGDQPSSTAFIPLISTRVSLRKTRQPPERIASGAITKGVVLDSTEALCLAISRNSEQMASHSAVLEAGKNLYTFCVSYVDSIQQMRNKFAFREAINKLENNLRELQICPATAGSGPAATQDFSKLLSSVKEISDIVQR

- Kd: 4.8 µM and 10 µM and 2.2 µM and 5.4 µM
Structure (SMILES): CCOC(=O)N1CCC(n2cnc(-c3ccc(F)cc3)c2-c2ccnc(N)n2)CC1 [4-[5-(2-Amino-pyrimidin-4-yl)-4-(4-fluoro-phenyl)-imidazol-1-yl]-piperidine-1-carboxylic acid ethyl ester]
